In patent publication US7476755B2, “Therapeutic compounds” (Allergan, Inc., priority 2006, dated 2009):

Tests used:
[1] = In vivo testing, dog hyperemia; conditions: Conc. 0.1% (g/100 mL)
Text: (§1) In vivo testing done as described in U.S. patent application Ser. No. 11/009,298 gave the results in Table 2 below.

[2] = In vivo testing, dog IOP; conditions: Conc. 0.1% (g/100 mL)
Text: as §1

[3] = In vivo testing, monkey IOP; conditions: Conc. 0.1% (g/100 mL)
Text: as §1

[4] = In vivo testing, rabbit hyperemia; conditions: Conc. 0.1% (g/100 mL)
Text: as §1

[5] = target: T1, EP2 (Homo sapiens, UniProt P43116); assay: cAMP assay, EP2; format: cell-based; parameters: expressed in transfected cells; host or cells: HEK-EBNA cells; conditions: HEK-EBNA cells expressing EP2
Protocol: A 384-well drug plate was prepared to contain 6 test compounds, PGE2 and cAMP in 16 serial dilutions in triplicate, using a Biomek station. HEK-EBNA cells expressing a target PG receptor subtype (EP2 or EP4) were suspended in a stimulation buffer (HBSS, 0.1% BSA, 0.5 mM IBMX and 5 mM HEPES, pH 7.4) in a density of 10^4 cells/5 μl. The reaction was initiated by mixing […] drug dilutions with 5 μl of HEK-EBNA cells in a well, carried out for 30 min at room temperature, and followed by the addition of 5 μl anti-cAMP acceptor beads in the control buffer with Tween-20 (25 mM NaCl, 0.03% Tween-20, 5 mM HEPES, pH7.4). After 30 min in the dark at room temperature, the mixtures were incubated with 15 μl biotinylated-cAMP/strepavidin donor beads in Lysis/Detection buffer (0.1% BSA, 0.3% Tween-20 and 5 mM HEPES, pH7.4) for 45 min at the room temperature. Fluorescence changes were read using a Fusion-alpha HT microplate reader.

[6] = target: T2, EP4 (Homo sapiens, UniProt P35408); assay: Radioligand binding, EP4; conditions: HEK-293 cells expressing EP4, [3H]PGE2; read-out: EP4 Ki EC50
T2 construct: expressed in transfected cells; membrane fraction
Protocol: HEK-293 cells stably expressing the human or feline FP receptor, or EP1, EP2, or EP4 receptors were washed with TME buffer, scraped from the bottom of the flasks, and homogenized for 30 sec using a Brinkman PT 10/35 polytron. TME buffer was added to achieve a final 40 ml volume in the centrifuge tubes (the composition of TME is 100 mM TRIS base, 20 mM MgCl2, […]; 10N HCl is added to achieve a pH of 7.4).
The cell homogenate was centrifuged at 19000 r.p.m. for 20 min at 4° C. using a Beckman Ti-60 rotor. The resultant pellet was resuspended in TME buffer to give a final 1 mg/ml protein concentration, as determined by Biorad assay. Radioligand binding competition assays vs. [^3H-]17-phenyl PGF2n (5 nM) were performed in a 100 μl volume for 60 min. Binding reactions were started by adding plasma membrane fraction. The reaction was terminated by the addition of 4 ml ice-cold TRIS-HCl buffer and rapid filtration through glass fiber GF/B filters using a Brandel cell harvester. The filters were washed 3 times with ice-cold buffer and oven dried for one hour.
[^3H-] PGE2 (specific activity 180 Ci mmol) was used as the radioligand for EP receptors. [^3H] 17-phenyl PGF2α was employed for FP receptor binding studies. […] 17-phenyl PGF2α and non-specific binding determined with 10^−5M of unlabeled PGE2, or 17-phenyl PGF2α, according to receptor subtype studied.

[7] = target: T3, hEP2/Gqs5 (Homo sapiens, UniProt P43116); assay: FLIPR calcium signal, EP2; format: cell-based; conditions: HEK-293(EBNA) cells, read-out: EP2 Ca2+ EC50
T3 construct: expressed in transfected cells
Protocol: HEK-293(EBNA) cells, stably expressing one type or subtype of recombinant human prostaglandin receptors (prostaglandin receptors expressed: hDP/Gqs5; hEP2; hEP2/Gqs5; hEP3A/Gqi5; hEP4/Gqs5; hFP; hIP; hTP), were cultured in 100 mm culture dishes in high-glucose DMEM medium containing 10% fetal bovine serum, 2 mM I-glutamine, 250 μg/ml geneticin (G418) and 200 μg/ml hygromycin B as selection markers, and 100 units/ml penicillin G, 100 μg/ml streptomycin and 0.25 μg/ml amphotericin B.
Cells were seeded at a density of 5×10^4 cells per well in Biocoat® Poly-D-lysine-coated black-wall, clear-bottom 96-well plates (Becton-Dickinson) and allowed to attach overnight in an incubator at 37° C. Cells were then washed two times with HBSS-HEPES buffer (Hanks Balanced Salt Solution without bicarbonate and phenol red, 20 mM HEPES, pH 7.4) using a Denley Cellwash plate washer (Labsystems). […]
Cells were excited with an Argon laser at 488 nm, and emission was measured through a 510-570 nm bandwidth emission filter (FLIPR™, Molecular Devices, Sunnyvale, Calif.). […] The peak increase in fluorescence intensity was recorded for each well. […] The peak fluorescence change in each drug-containing well was then expressed relative to the controls. […]

[8] = target: T1, EP2; assay: Competition binding, human EP2 receptors ([3H]PGE2); parameters: expressed in transfected cells; conditions: HEK 293 cells stably expressing human EP2, [3H]PGE2
Protocol: Competition binding experiments were performed in a medium containing Hank's balanced salt solution, Hepes 20 mM, pH 7.3, membranes (˜60 μg protein) or 2×10^5 cells from HEK 293 cells stably expressing human EP2 receptors, [^3H]PGE2 (10 nM) and various concentrations of test compounds in a total volume of 300 μl. Reaction mixtures were incubated at 23° C. for 60 min, and were filtered over Whatman GF/B filters under vacuum. Filters were washed three times with 5 ml ice-cold buffer containing 50 mM Tris/HCl (pH 7.3). Non-specific binding was estimated in the presence of excess unlabeled PGE2 (10 μM). Binding data fitted to the binding model for a single class of binding sites, using nonlinear regression analysis. IC50 values thus obtained were converted to Ki using the equation of Ki=(IC50/(1+[L]/KD) where [L] represents PGE2 concentration (10 nM) and KD the dissociation constant for [^3H]PGE2 at human EP2 receptors (40 nM). […]
The cell homogenate was centrifuged at 19000 r.p.m. for 20 min at 4° C. using a Beckman Ti-60 rotor. The resultant pellet was resuspended in TME buffer to give a final 1 mg/ml protein concentration, as determined by Biorad assay. […]
[^3H-] […] 17-phenyl PGF2α and non-specific binding determined with 10^−5M of unlabeled PGE2, or 17-phenyl PGF2α, according to receptor subtype studied.

T1 sequence (P43116 whole entry): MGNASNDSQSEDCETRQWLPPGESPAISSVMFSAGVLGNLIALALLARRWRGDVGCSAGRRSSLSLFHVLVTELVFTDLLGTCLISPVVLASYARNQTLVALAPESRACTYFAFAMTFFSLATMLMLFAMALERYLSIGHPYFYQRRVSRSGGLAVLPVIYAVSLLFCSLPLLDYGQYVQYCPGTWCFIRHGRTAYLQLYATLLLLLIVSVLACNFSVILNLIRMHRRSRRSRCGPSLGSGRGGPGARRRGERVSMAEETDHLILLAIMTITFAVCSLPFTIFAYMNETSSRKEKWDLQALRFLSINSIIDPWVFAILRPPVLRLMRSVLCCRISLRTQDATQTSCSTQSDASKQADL
T2 sequence (P35408 whole entry): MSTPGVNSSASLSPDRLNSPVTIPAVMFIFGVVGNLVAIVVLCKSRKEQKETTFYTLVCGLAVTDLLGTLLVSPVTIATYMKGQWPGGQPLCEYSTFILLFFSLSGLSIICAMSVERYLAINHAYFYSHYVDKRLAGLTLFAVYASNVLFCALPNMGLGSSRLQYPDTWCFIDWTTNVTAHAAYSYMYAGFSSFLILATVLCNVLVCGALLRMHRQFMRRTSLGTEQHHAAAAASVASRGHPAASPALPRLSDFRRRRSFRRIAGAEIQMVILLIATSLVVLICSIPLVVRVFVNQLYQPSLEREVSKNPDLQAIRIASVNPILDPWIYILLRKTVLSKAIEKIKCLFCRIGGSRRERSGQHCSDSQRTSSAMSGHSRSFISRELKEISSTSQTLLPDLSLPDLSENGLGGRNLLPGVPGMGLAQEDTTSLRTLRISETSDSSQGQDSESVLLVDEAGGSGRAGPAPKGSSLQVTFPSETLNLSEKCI
T3 sequence (P43116 whole entry): as the sequence (P43116 whole entry) above

Compound	DOG Max. hyperemia [1]	DOG Max. IOP (%) [2]	MONKEY Max. IOP (%) [3]	RABBIT Max. hyperemia [4]	EC50 [5]	Ki [6]	EC50 [7]	Ki [8]
CCCCCC(=O)c1ccc([C@@H]2[C@@H](C/C=C\CCCC(=O)O)[C@H](Cl)C[C@H]2O)cc1 [Entry 1]	2.0	−50%	31%	–	–	–	–	–
CCCCCC(=O)c1ccc([C@@H]2[C@@H](C/C=C\CCCC(=O)OC(C)C)[C@H](Cl)C[C@H]2O)cc1 [Entry 2]	0.8	−37%	20%	0	–	–	–	–
CCCCCC(=O)c1ccc([C@@H]2[C@@H](C/C=C\CCCC(=O)O)[C@H](Cl)C[C@H]2O)cc1 [drawing 41]	–	–	–	–	9 nM	2810 nM	31 nM	111 nM
